Laboratory results: patent EP2386565A2, “Compounds and methods to inhibit or augment an inflammatory response” (Cambridge Enterprise Ltd., priority 1999, dated 2000)
Residues, ends and D or L forms follow the SMILES beside them.

Key:
[1] = system: MIP1α induced human monocyte migration; assay: Migration of freshly prepared peripheral blood monocytes, MIP1α; type: cell-based
Protocol: Agents may also be screened in a chemotactic assay which employs human neutrophils, eosinophils, mast cells, basophils, platelets, lymphocytes or monocytes. For monocytes, 9 mls of fresh blood are transferred to a tube containing 1 ml of 3.8% sodium citrate, and left at room temperature for 15 minutes. Five mls of this anti-coagulated blood are carefully layered over 3.5 ml Polymorphprep® (Nycomed Pharma, Oslo), and centrifuged at 500 g for 35 minutes per the manufacturer's instructions. The top band at the sample/medium interface contains monocytes. The monocytes are carefully removed with a glass pipette, and reconstituted to the original volume (5 ml). The cells are washed with PBS plus 10% fetal calf serum, and centrifuged at 400 g for 10 minutes. The washing step is repeated three times before the cells are counted. Cells are resuspended at 1 × 10^7 cells/ml in RPMI-1640 + 10% fetal calf serum (FCS). The monocytes are cultured for two days at 37°C in a humidified atmosphere of 5% CO2-
On day 2, the cells are counted, spun down, and reconstituted to 1 × 10^7 cells/ml in Gey's balanced salt solution + 1 mg/ml bovine serum albumin (BSA). […]

[2] = system: IL8 induced THP-1 migration; assay: THP-1 trans-well migration assay, IL8 as chemoattractant; type: cell-based, human
Protocol: To determine whether an agent inhibits a chemokine-induced activity, such as macrophage recruitment, varying amounts of the agent are mixed with cells in the presence of a known chemoattractant. For example, a range of known concentrations of an agent, e.g., a chemokine peptide, is incubated with a defined number (e.g., 10^4 - […]) of human THP-1 monocyte cells in individual wells of the top compartment of a trans-well plate. Chemokine (such as MCP-1, MIP1α, IL8 or SDF-1α), at a concentration known to cause significant migration of THP-1 cells in the trans-well migration assay, is placed in the lower compartment (Figure 1). […] A standard curve consisting of a two-fold dilution series of THP-1 cells (in 29 µl) is prepared to accurately quantify the number of cells that have migrated. […] Absorbance of converted dye is measured at a wavelength of 595 nm using an ELISA plate reader. The number of migrated cells in each well is then determined by interpolation of the standard curve (see also Imai et al.,J. Biol. Chem., 272, 15036 (1997)). […]
After incubation, the cells were gently removed from the top of the filter with a pipette, 20 µl of 20 mM EDTA in PBS was added into each top well, and the mixture was incubated for 20 minutes at 4°C. […] A standard curve was prepared to accurately quantify the number of THP-1 cells that had migrated. […]

CC[C@H](C)[C@H](NC(=O)[C@H](C)NC(=O)[C@H](CC(=O)O)NC(=O)[C@@H]1CCCN1C(=O)[C@H](CCC(N)=O)NC(=O)[C@H](C)N)C(=O)N[C@@H](CC(N)=O)C(=O)N[C@@H](C)C(=O)N1CCC[C@H]1C(=O)N[C@H](C(=O)N[C@H](C(=O)N[C@@H](CS)C(=O)N[C@@H](CS)C(=O)O)[C@@H](C)O)C(C)C [Peptide 1] (H-AQPDAINAPVTCC-OH; N-terminus and C-terminus assumed)
n.s.: % inhibition at 100 µM versus MIP1α [1] | % inhibition at 100 µM versus IL8 ([2]; THP-1 migration, agent at 100 µM, n.s. or dash = no statistically significant inhibition) | ED50 (µM) versus IL8 ([2]; inhibition of THP-1 migration, n.s. = not statistically significant)
